Laboratory results taken from ChEMBL document CHEMBL1201862, “PubChem BioAssay data set” (2004).
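Protocol summary: plate cells (96-well), add compound at 5 concentrations, incubate 48 h, interpolate endpoints linearly. Here, GI50 denotes the concentration required for 50% inhibition of growth.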 Calls of active or inactive are those of the source. No stated cut-off is given here; in the data, active = GI50 up to about 1.1 µM and inactive = higher.

What was measured:
Test in all cases: inhibition of tumour cell growth, NCI panel, 48 h
786-0 = tested on: 786-0
ACHN = tested on: ACHN
CAKI-1 = tested on: CAKI-1
CCRF-CEM = tested on: CCRF-CEM
COLO 205 = tested on: COLO 205
HCT-15 = tested on: HCT-15
HOP-62 = tested on: HOP-62
HT-29 = tested on: HT-29
Hs-578T = tested on: Hs-578T
IGROV-1 = tested on: IGROV-1
MDA-MB-231 = tested on: MDA-MB-231
Malme-3M = tested on: Malme-3M
NCI-H23 = tested on: NCI-H23
NCI-H522 = tested on: NCI-H522
SF-539 = tested on: SF-539
SK-MEL-5 = tested on: SK-MEL-5
SNB-19 = tested on: SNB-19
SR = tested on: SR
T47D = tested on: T47D
TK-10 = tested on: TK-10

Compound	GI50 (786-0)	GI50 (ACHN)	GI50 (CAKI-1)	GI50 (CCRF-CEM)	GI50 (COLO 205)	GI50 (HCT-15) [µM]	GI50 (HOP-62)	GI50 (HT-29)	GI50 (Hs-578T)	GI50 (IGROV-1)	GI50 (MDA-MB-231)	GI50 (Malme-3M)	GI50 (NCI-H23)	GI50 (NCI-H522)	GI50 (SF-539)	GI50 (SK-MEL-5)	GI50 (SNB-19)	GI50 (SR)	GI50 (T47D)	GI50 (TK-10)
N=C(CC(=O)Nc1ccccn1)c1ccccc1	> 100 µM (inactive)	> 100 µM (inactive)	> 100 µM (inactive)	> 100 µM (inactive)	> 100 µM (inactive)	> 100	> 100 µM (inactive)	> 100 µM (inactive)	> 100 µM (inactive)	> 100 µM (inactive)	> 100 µM (inactive)	> 100 µM (inactive)	> 100 µM (inactive)	> 100 µM (inactive)	> 100 µM (inactive)	> 100 µM (inactive)	> 100 µM (inactive)	> 100 µM (inactive)	> 100 µM (inactive)	> 100 µM (inactive)
CN(C)CCCNc1c2c(nc3ccc(Cl)cc13)CCCC2	10.5 µM (inactive)	16.1 µM (inactive)	23.3 µM (inactive)	3.93 µM (inactive)	8.51 µM (inactive)	13.3	12.9 µM (inactive)	5.47 µM (inactive)	19.1 µM (inactive)	12.7 µM (inactive)	13.6 µM (inactive)	15.6 µM (inactive)	15.8 µM (inactive)	12.2 µM (inactive)	13.5 µM (inactive)	14.4 µM (inactive)	19.1 µM (inactive)	2.55 µM (inactive)	26.5 µM (inactive)	15.2 µM (inactive)
O=C(/C=C/c1ccc(O)c(O)c1)c1cc(O)cc(O)c1	13.7 µM (inactive)	14.7 µM (inactive)	> 100 µM (inactive)	2 µM (inactive)	17.2 µM (inactive)	15.7	21.4 µM (inactive)	19.4 µM (inactive)	11 µM (inactive)	13.8 µM (inactive)	12.8 µM (inactive)	14.4 µM (inactive)	12.3 µM (inactive)	1.71 µM (inactive)	6.52 µM (inactive)	> 100 µM (inactive)	14.5 µM (inactive)	5.24 µM (inactive)	10.5 µM (inactive)	15.3 µM (inactive)
COC(=O)C(Cc1ccccc1)NC(=O)c1ccc(CNC(=S)NCc2cccc(CNC(=S)NCc3ccccc3)c2)cc1 (stereo not given)	> 34.6 µM (inactive)	> 34.5 µM (inactive)	> 36.4 µM (inactive)	> 34 µM (inactive)	> 32.1 µM (inactive)	> 35.2	28.9 µM (inactive)	> 33.7 µM (inactive)	> 29.9 µM (inactive)	> 31.7 µM (inactive)	> 34 µM (inactive)	> 34.9 µM (inactive)	> 35.4 µM (inactive)	> 32.5 µM (inactive)	> 62.5 µM (inactive)	> 32.6 µM (inactive)	> 33.3 µM (inactive)	> 34.6 µM (inactive)	> 33.7 µM (inactive)	> 35.8 µM (inactive)
CC(=O)OCc1cc2ccccc2nc1C(Br)(Br)Br	19.4 µM (inactive)	13.2 µM (inactive)	15.7 µM (inactive)	10.9 µM (inactive)	19.6 µM (inactive)	16.9	26.1 µM (inactive)	21.6 µM (inactive)	27 µM (inactive)	12 µM (inactive)	19.3 µM (inactive)	0.603 µM (active)	13.6 µM (inactive)	16 µM (inactive)	21.1 µM (inactive)	11.1 µM (inactive)	20.1 µM (inactive)	1.46 µM (inactive)	27.8 µM (inactive)	16.1 µM (inactive)
COC(=O)C1(Cc2ccccc2C)Cc2ccc(C)cc2C1=O (stereo not given)	45.6 µM (inactive)	34.9 µM (inactive)	36.1 µM (inactive)	48 µM (inactive)	19.5 µM (inactive)	27.4	56.4 µM (inactive)	16.7 µM (inactive)	33.2 µM (inactive)	70.5 µM (inactive)	42.2 µM (inactive)	23.2 µM (inactive)	26.4 µM (inactive)	17.3 µM (inactive)	37.5 µM (inactive)	16.9 µM (inactive)	64.6 µM (inactive)	13.9 µM (inactive)	22.8 µM (inactive)	15.5 µM (inactive)
Cc1c2ncccc2c(C)c2c1[nH]c1ccc(O)cc12	2.91 µM (inactive)	2.02 µM (inactive)	3.32 µM (inactive)	1.33 µM (inactive)	10.4 µM (inactive)	3.39	1.86 µM (inactive)	6.87 µM (inactive)	1.08 µM (active)	3.89 µM (inactive)	4.93 µM (inactive)	8.87 µM (inactive)	6.58 µM (inactive)	6.22 µM (inactive)	6.55 µM (inactive)	7.24 µM (inactive)	6.61 µM (inactive)	1.74 µM (inactive)	8.59 µM (inactive)	12.8 µM (inactive)
O=C(NC12CC3CC(CC(C3)C1)C2)n1cnc2c(Cl)ncnc21	> 100 µM (inactive)	21.2 µM (inactive)	> 100 µM (inactive)	7.71 µM (inactive)	17 µM (inactive)	35	37.5 µM (inactive)	27 µM (inactive)	32.3 µM (inactive)	18.5 µM (inactive)	42.8 µM (inactive)	> 100 µM (inactive)	22.7 µM (inactive)	27.9 µM (inactive)	42.6 µM (inactive)	24.2 µM (inactive)	> 100 µM (inactive)	10.8 µM (inactive)	> 100 µM (inactive)	> 100 µM (inactive)
C=CCN1C(=O)/C(=C/c2cccs2)N=C1SC/C=C/C	36.8 µM (inactive)	35.5 µM (inactive)	46.9 µM (inactive)	34.8 µM (inactive)	31.6 µM (inactive)	33.5	> 100 µM (inactive)	34.6 µM (inactive)	32.7 µM (inactive)	63.8 µM (inactive)	68.1 µM (inactive)	34 µM (inactive)	44.7 µM (inactive)	26.9 µM (inactive)	58.3 µM (inactive)	19.1 µM (inactive)	80.9 µM (inactive)	18.5 µM (inactive)	21 µM (inactive)	92 µM (inactive)
COc1cc(OC)c(/C=C\c2ccnc3ccccc23)c(OC)c1	5.53 µM (inactive)	4.41 µM (inactive)	6.93 µM (inactive)	1.7 µM (inactive)	1.98 µM (inactive)	0.794	5.19 µM (inactive)	2.67 µM (inactive)	2.64 µM (inactive)	1.45 µM (inactive)	3.05 µM (inactive)	1.34 µM (inactive)	5.61 µM (inactive)	3.76 µM (inactive)	3.73 µM (inactive)	1.7 µM (inactive)	5.5 µM (inactive)	0.689 µM (active)	3.12 µM (inactive)	4.61 µM (inactive)
C=C1C(=O)O[C@@H]2C[C@@H](C)[C@@H]3[C@@H](OC4OC(COC(C)=O)C(O)C(O)C4O)CC(=O)[C@@]3(C)C[C@H]12 (stereo not given in full)	0.396 µM (active)	0.508 µM (active)	0.508 µM (active)	0.238 µM (active)	0.703 µM (active)	0.218	17.3 µM (inactive)	1.22 µM (inactive)	25.2 µM (inactive)	2.17 µM (inactive)	4.36 µM (inactive)	0.283 µM (active)	12.5 µM (inactive)	0.127 µM (active)	2.42 µM (inactive)	1.74 µM (inactive)	20.2 µM (inactive)	1.6 µM (inactive)	2.84 µM (inactive)	1.68 µM (inactive)
C=CCc1cc(-c2cc(CC=C)c(O)c(CN(CCCl)CCCl)c2)cc(CN(CCCl)CCCl)c1O	7.94 µM (inactive)	7.69 µM (inactive)	8.22 µM (inactive)	3.03 µM (inactive)	17.7 µM (inactive)	15.5	14 µM (inactive)	13.7 µM (inactive)	37 µM (inactive)	16.2 µM (inactive)	18.6 µM (inactive)	18.7 µM (inactive)	6.89 µM (inactive)	10.9 µM (inactive)	12.2 µM (inactive)	16.8 µM (inactive)	19.1 µM (inactive)	0.627 µM (active)	8.55 µM (inactive)	19.3 µM (inactive)
COc1c(OC(C)=O)c(OC(C)=O)cc2c1-c1ccc(OC)c(=O)cc1C(NC(C)=O)CC2 (stereo not given)	0.027 µM (active)	0.439 µM (active)	0.054 µM (active)	0.013 µM (active)	0.0171 µM (active)	0.465	0.0635 µM (active)	0.0198 µM (active)	< 0.01 µM (active)	0.0254 µM (active)	0.0129 µM (active)	< 0.01 µM (active)	0.0199 µM (active)	0.0114 µM (active)	< 0.0122 µM (active)	0.0116 µM (active)	0.0336 µM (active)	0.0128 µM (active)	> 100 µM (inactive)	2.7 µM (inactive)
C[C@H]1[C@H]2[C@H](C[C@@]3(C)C4=CC[C@H]5C(C)(C)[C@@H](OC6OCC(O)C(O)C6O)CC[C@@]56C[C@@]46CC[C@]23C)O[C@@]2(O)[C@@H]1OC(C)(C)[C@H]2O (stereo not given in full)	1.06 µM (active)	2.12 µM (inactive)	2.05 µM (inactive)	0.791 µM (active)	2.67 µM (inactive)	1.05	1.78 µM (inactive)	2.61 µM (inactive)	0.682 µM (active)	0.918 µM (active)	1.81 µM (inactive)	0.993 µM (active)	1.09 µM (active)	0.605 µM (active)	1.95 µM (inactive)	1.66 µM (inactive)	2.49 µM (inactive)	1.54 µM (inactive)	0.83 µM (active)	1.17 µM (inactive)
